The results in this text go back to ChEMBL document CHEMBL4602621, “Optimization of cyclic sulfamide derivatives as 11β-hydroxysteroid dehydrogenase 1 inhibitors for the potential treatment of ischemic brain injury” (Bioorg Med Chem Lett, 2020).

Each structure is given as a SMILES string. Activity calls are given as the source filed them. No cut-off for these calls is given here.

Series [1] has as its target 11-beta-hydroxysteroid dehydrogenase 1 (Mus musculus) (UniProt P50172). The series is described as follows: In vivo inhibition of 11 beta-HSD1 in brain of mouse at 20 mg/kg, po relative to control. It counts as functional, organism-based.
The target of series [2] is 11-beta-hydroxysteroid dehydrogenase 1 (Mus musculus, UniProt P50172). In words: Inhibition of mouse 11beta-HSD1 expressed in CHOK1 cells using XL665-labeled cortisol as substrate measured after 24 hrs by HTRF assay. The class given is cell-based, CHO-K1.
Series [3] concerns the target 11-beta-hydroxysteroid dehydrogenase 1 (Mus musculus) (UniProt P50172). In words: In vivo inhibition of 11 beta-HSD1 in brain of mouse at 30 mg/kg, po relative to control. It counts as functional, organism-based.
Series [4] is described as follows: Ratio of drug concentration in brain to plasma of mouse at 10 mg/kg, ip administered as single dose measured at 0.5 hrs. It counts as ADME, organism-based. As to conditions: read-out: BPR.
In series [5] the test system is Mus musculus. The series is described as follows: Neuroprotective activity in mouse model of middle cerebral artery occlusion-induced ischemia-reperfusion injury assessed as cerebral infarct volume at 30 mg/kg, ip administered twice at 1 to 5 hrs post induction of ischemia followed by 24 hrs of reperfusion by TTC staining based assay (reference value: 90.3 +/- 6 mm3). It counts as functional.

The nature of series [6]: Drug level in brain of mouse at 10 mg/kg, ip administered as single dose measured at 3 hrs. As to conditions: read-out: Drug uptake. The class given is ADME, organism-based.
Series [7] is described as follows: Drug level in brain of mouse at 10 mg/kg, ip administered as single dose measured at 0.5 hrs. It counts as ADME, organism-based. As to conditions: read-out: Drug uptake.
Series [8] is described as follows: Ratio of drug concentration in brain to plasma of mouse at 10 mg/kg, ip administered as single dose measured at 3 hrs. It counts as ADME, organism-based. As to conditions: read-out: BPR.
A short description of series [9]: Drug level in plasma of mouse at 10 mg/kg, ip administered as single dose measured at 0.5 hrs. The class given is ADME, organism-based.
Series [10] deals with Mus musculus. The series is described as follows: Neuroprotective activity in mouse model of middle cerebral artery occlusion-induced ischemia-reperfusion injury assessed as reduction in cerebral infarct area at 10 to 30 mg/kg, ip administered twice at 1 to 5 hrs post induction of ischemia followed by 24 hrs of reperfusion by TTC staining based assay. It counts as functional, organism-based.

A short description of series [11]: Drug level in plasma of mouse at 10 mg/kg, ip administered as single dose measured at 3 hrs. The class given is ADME, organism-based.
The target of series [12] is 11-beta-hydroxysteroid dehydrogenase 1 (Homo sapiens, UniProt P28845). The series is described as follows: Inhibition of human 11beta-HSD1 expressed in CHOK1 cells using XL665-labeled cortisol as substrate measured after 24 hrs by HTRF assay. It counts as cell-based, CHO-K1.
Series [13] relates to Mus musculus. The series is described as follows: Neuroprotective activity in mouse model of middle cerebral artery occlusion-induced ischemia-reperfusion injury assessed as cerebral infarct volume at 10 mg/kg, ip administered twice at 1 to 5 hrs post induction of ischemia followed by 24 hrs of reperfusion by TTC staining based assay (reference value: 90.3 +/- 6 mm3). It counts as functional.

For series [14], the target named is 11-beta-hydroxysteroid dehydrogenase 1 (Mus musculus) (UniProt P50172). In words: Ex vivo inhibition of 11 beta-HSD1 in brain of iv dosed mouse by measuring cortisol amount after 1 hr by ELISA. The class given is functional, organism-based.
Chain of 11-beta-hydroxysteroid dehydrogenase 1 (Mus musculus) (P50172 whole entry, looked up): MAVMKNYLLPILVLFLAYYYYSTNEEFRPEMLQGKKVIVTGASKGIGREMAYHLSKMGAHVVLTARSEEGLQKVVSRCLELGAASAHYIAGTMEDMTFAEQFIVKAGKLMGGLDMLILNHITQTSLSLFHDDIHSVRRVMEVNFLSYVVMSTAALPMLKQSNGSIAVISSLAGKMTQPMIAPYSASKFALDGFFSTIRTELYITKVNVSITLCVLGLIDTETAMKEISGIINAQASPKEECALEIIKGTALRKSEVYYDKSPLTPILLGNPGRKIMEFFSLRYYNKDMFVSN

Chain of 11-beta-hydroxysteroid dehydrogenase 1 (Mus musculus, UniProt P50172) (P50172 whole entry): as the sequence (P50172 whole entry, looked up) above
Chain of 11-beta-hydroxysteroid dehydrogenase 1 (Homo sapiens, UniProt P28845) (P28845 whole entry, the tested form may be a part): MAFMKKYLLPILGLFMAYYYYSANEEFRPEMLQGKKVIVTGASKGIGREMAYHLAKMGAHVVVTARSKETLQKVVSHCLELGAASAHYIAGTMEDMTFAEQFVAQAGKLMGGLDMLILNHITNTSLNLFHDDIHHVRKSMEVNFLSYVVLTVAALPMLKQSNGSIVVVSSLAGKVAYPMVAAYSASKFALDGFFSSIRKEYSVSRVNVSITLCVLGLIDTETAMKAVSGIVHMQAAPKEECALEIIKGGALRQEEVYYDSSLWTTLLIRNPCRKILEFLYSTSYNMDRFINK

In the case of `CC1CN(CC(=O)NC2C3CC4CC2CC(C(N)=O)(C4)C3)S(=O)(=O)N(c2c(Cl)cc(Br)cc2Cl)C1` (stereo not given), the inhibition in [1] was found to be 41.1%.

Consider `NC(=O)C12CC3CC(C1)C(NC(=O)CN1CCCN(c4c(Cl)cc(C(F)(F)F)cc4Cl)S1(=O)=O)C(C3)C2` (stereo not given), for which the inhibition in series [1] stood at 45.8%.

In series [2], `CC1CN(CC(=O)NC2C3CC4CC2CC(C(N)=O)(C4)C3)S(=O)(=O)N(c2c(Cl)cc(-c3ccco3)cc2Cl)C1` (stereo not given) registered an IC50 of 68 nM. This lies in the double-digit nanomolar range.

`CC1CN(CC(=O)NC2C3CC4CC2CC(C(N)=O)(C4)C3)S(=O)(=O)N(c2c(Cl)cc(-c3ccccc3)cc2Cl)C1` (stereo not given) came in with an IC50 in series [2] of 174 nM.

`CC1CN(CC(=O)NC2C3CC4CC2CC(C(N)=O)(C4)C3)S(=O)(=O)N(c2ccc(C(F)(F)F)cn2)C1` (stereo not given) returned an IC50 in [2] of 940 nM.

The molecule `CC1CN(CC(=O)NC2C3CC4CC2CC(C(N)=O)(C4)C3)S(=O)(=O)N(c2ccccn2)C1` (stereo not given) came in with an IC50 in series [2] of 1210 nM.

Consider `CC(C)C1CN(CC(=O)NC2C3CC4CC2CC(C(N)=O)(C4)C3)S(=O)(=O)N(c2c(Cl)cc(C(F)(F)F)cc2Cl)C1` (stereo not given), for which, in [2], it took 2800 nM to reach half-maximal inhibition (IC50).

In series [2], `Cc1cc(Cl)c(N2CC(C)CN(CC(=O)NC3C4CC5CC3CC(C(N)=O)(C5)C4)S2(=O)=O)c(Cl)c1` (stereo not given) returned an IC50 of 3.7 nM. Besides, the inhibition in series [1] came out at 69%.

As for `CC1CN(CC(=O)NC2C3CC4CC2CC(C(N)=O)(C4)C3)S(=O)(=O)N(c2c(Cl)cc(Cl)cc2Cl)C1` (stereo not given), in [3], the inhibition was found to be 66%. Moreover, half-maximal inhibition in series [2] (IC50) was put at 2 nM.

Turning to `CC1CN(CC(=O)NC2C3CC4CC2CC(C(N)=O)(C4)C3)S(=O)(=O)N(c2c(Cl)cc(C(F)(F)F)cc2Cl)C1` (stereo not given), the Kp at 0.5 h in series [4] is 0.38. For the same molecule, the Activity in the series with Mus musculus [5] was 59 mm3; in the series with Mus musculus [13], 66.2 mm3. Further, the figures for the concentration at 3 h in series [6] and in [11] were 670 ng/mL and 1310 ng/mL, respectively. The concentration at 0.5 h in series [7] worked out at 1780 ng/mL; in [9], 4770 ng/mL. In addition, the Kp at 3 h in series [8] came to 0.53. Besides, the IC50 in series [2] and in series [12] was 1 nM in each case. Further, in the series with Mus musculus [10], the outcome was Active. Besides, the values for the inhibition entry in series [14] and in series [1] were “Dose-dependent effect” and 82%, respectively.

`CCC1CN(CC(=O)NC2C3CC4CC2CC(C(N)=O)(C4)C3)S(=O)(=O)N(c2c(Cl)cc(C(F)(F)F)cc2Cl)C1` (stereo not given) gave an IC50 in series [2] of 695 nM.
